According to article PMC10740580, “Benzothiazole-Phthalimide Hybrids as Anti-Breast Cancer and Antimicrobial Agents” (Antibiotics, 2023):
Converted amounts (≈) assume the structure as drawn.

Tests used:
[1] = test system: Staphylococcus aureus 25923; test: Broth microdilution, S. aureus ATCC 25923; format: cell-based; conditions: Staphylococcus aureus, 25923, 24 h, 37 °C
From the text: (§1) Compounds 3a–h were examined in accordance with the Clinical Laboratory Standards Institute (CLSI) recommendations, by means of the broth microdilution method, against gram-positive bacteria (Staphylococcus aureus 25923, Staphylococcus aureus 29213, Staphylococcus aureus 43300, Enterococcus faecalis 29212) and gram-negative bacteria (Escherichia coli 25922, Klebsiella pneumoniae 13883, Pseudomonas aeruginosa 27853) belonging to the ATCC collection, using levofloxacin as a reference drug. Table 3 lists the results, expressed as MIC (µg/mL). […] The lack of activity observed for compound 3d could be conceivably due to its poor solubility in the culture medium containing the inoculum.
(§2) Following the recommendations of the CLSI (Clinical and Laboratory Standards Institute, 2012), the broth microdilution method was used to determine the in vitro minimum inhibitory concentrations (MICs, µg/mL).. The concentration of the investigated compounds was set to its highest value to create stock solutions. Then, the stock solutions were diluted 1:10 with Cation-Adjusted Mueller Hinton Broth (Oxoid, Milan, Italy). After that, a series of concentrations from 512 µg/mL to […] were obtained in the wells by performing two-fold serial dilutions in the appropriate test medium. The diluent used to create the stock solution was 100% DMSO. We used the following bacterial strains from the ATCC collection that were available as freeze-dried discs: gram-positive strains such as S. aureus ATCC 25923, 29213, and 43300, and E. faecalis ATCC 29212, and gram-negative ones such as E. coli ATCC 25922, K. pneuomoniae ATCC 13883, and P. aeruginosa ATCC 27853. To preserve the purity of cultures and to allow their reproducibility, cryovials of all microbial strains were set up in the medium and stored at −80 °C. Mueller Hinton Broth (MHB) was used to prepare pre-cultures of each bacterial strain, which were then incubated for 3–5 h at 37 °C. In accordance with CLSI procedure M7-A9, the turbidity of the bacterial cell suspension was calibrated to 0.5 McFarland Standard using a spectrophotometric approach (OD625 nm 0.08–0.10). The standardized suspension was then further diluted (1:100) with MHB to reach 1–2 × 10^6 CFU/mL. A 200 µL aliquot of the final inoculum was inserted into each well. As a control for growth, several wells containing only inoculated broth were prepared. The plates were incubated at 37 °C for 24 h, and the MIC values were calculated as the lowest concentration of compounds at which there was no optically detectable bacteria growth. Each experiment was carried out in duplicate and repeated twice to determine the MICs. Levofloxacin served as the study’s standard reference antibiotic. Additionally, the antibacterial activity of DMSO alone (used as a diluent for the investigated compounds) was examined; therefore, volumes of this solvent with a concentration of less than 5% were utilized throughout the experimentation.

[2] = test system: Staphylococcus aureus 29213; test: Broth microdilution, S. aureus ATCC 29213; format: cell-based; conditions: 24 h, 37 °C
From the text: as §1, §2

[3] = test system: Staphylococcus aureus 43300; test: Broth microdilution, S. aureus ATCC 43300; format: cell-based; conditions: 24 h, 37 °C, methicillin-resistant
From the text: as §1, §2

[4] = test system: Enterococcus faecalis 29212; test: Broth microdilution, E. faecalis ATCC 29212; format: cell-based; conditions: 24 h, 37 °C, read-out: MIC E.f. 29212
From the text: as §1, §2

[5] = test system: Acinetobacter baumanii 19606; test: Broth microdilution, A. baumanii 19606; format: cell-based; conditions: Acinetobacter baumannii, 24 h, 37 °C, read-out: MIC A.b. 19606
[6] = test system: Escherichia coli 25922; test: Broth microdilution, E. coli ATCC 25922; format: cell-based; conditions: 24 h, 37 °C
From the text: as §1, §2

[7] = test system: Klebsiella pneumoniae 13883; test: Broth microdilution, K. pneumoniae ATCC 13883; format: cell-based; conditions: 24 h, 37 °C, read-out: MIC K.p. 13883
From the text: as §1, §2

[8] = test system: Pseudomonas aeruginosa 27853; test: Broth microdilution, P. aeruginosa ATCC 27853; format: cell-based; conditions: 24 h, 37 °C
From the text: as §1, §2

[9] = test system: MDA-MB-231 cells; test: MTT cell viability assay, MDA-MB-231; format: cell-based, human; conditions: Homo sapiens, MDA-MB-231, 72 h exposure, mean ± SD
Description: (§3) The anticancer activity of the studied compounds (3a–h) was explored with regards to two human breast cancer cell lines, namely the estrogen receptor positive (ER+) MCF-7 cells and the triple negative MDA-MB-231 cells (ER-, PR-, and HER-2/Neu-). Cells were continuously exposed to the test substances for 72 h, after which their viability was assessed by means of the MTT assay. Table 2 lists the determined IC50 values for the investigated substances and the reference drug, thalidomide. […] Additionally, the same test for all the compounds has been performed on nonmalignant breast epithelial cells (MCF-10A) to ascertain their potential cytotoxicity.
(§4) The four cell lines used in this work (MCF-7, MDA-MB-231, MCF-10A, and 3T3-L1) were obtained from the American Type Culture Collection (ATCC, Manassas, VA, USA). All cell lines were maintained at 37 °C in a humidified atmosphere of 95% air and 5% CO2 and periodically screened for contamination. MCF-7, human breast cancer cells estrogen receptor (ER)-positive, and human breast cancer triple negative MDA-MB231 were grown in DMEM-F12 medium containing 2 mmol/L L-glutamine, 1 mg/mL penicillin–streptomycin, and 5% newborn calf serum (NCS) or 5% fetal bovine serum (FBS), respectively. MCF-10A human mammary epithelial cells were cultured in DMEM/F12 medium, supplemented with 5% horse serum (HS) (Eurobio, Les Ullis, Cedex, France), 100 U/mL penicillin/streptomycin, […], 20 ng/mL hEGF (human epidermal growth factor), […], and […] (Sigma-Aldrich, Milano, Italy). BALB/3T3 murine fibroblast cells were cultured in DMEM high glucose supplemented with 10% bovine calf serum (BCS), 1% L-glutamine, and 100 U/mL penicillin/streptomycin.
(§5) Cell viability was evaluated by means of the 3-(4,5-dimethylthiazol-2-y1)-2,5-diphenyltetra zolium bromide (MTT, Sigma-Aldrich, Milan, Italy) assay. On 48-well plates, cells were seeded, and they were cultured in complete medium. Before being treated, cells were starved in serum-free medium for 24 h to allow cell cycle synchronization. Subsequently, cells were exposed to increasing doses of each compound for 72 h in phenol-red-free media supplemented with 1% serum before fresh MTT was added to each well (final concentration: 0.5 mg/mL). Cells were lysed with DMSO after 2 h of incubation at 37 °C, and optical density at 570 nm was then determined with a microplate reader. Using GraphPad Prism 9 software (GraphPad Inc., San Diego, CA, USA), the mean absorbance for each sample was expressed as a percentage over the control and plotted vs. drug concentrations to establish the IC50 values. The given standard deviations (SDs) are indicative of three separate tests carried out in triplicate.

[10] = test system: MCF-7 cells; test: MTT cell viability assay, MCF-7; format: cell-based, human; conditions: Homo sapiens, MCF7, 72 h exposure, mean ± SD
Description: as §3, §4, §5

[11] = test system: MCF-10A cells; test: MTT cell viability assay, nonmalignant MCF-10A; format: cell-based; conditions: Homo sapiens, 72 h exposure, nonmalignant breast epithelial cells, mean ± SD, read-out: IC50 MCF10-A
Description: as §3, §4, §5

[12] = test system: MDA-MB-231 cells; test: TUNEL assay (DNA damage); format: cell-based, human; conditions: 50 μM, 24 h
Description: To further assess the effect of 3h treatment in MDA-MB-231, the terminal deoxynucleotidyl transferase dUTP nick-end labeling (TUNEL) assay was used. Thus, 3h or Thalidomide, as reference drug, were administered to the cells, for 24 h, at 25 and 50 μM concentrations, respectively, or with only the vehicle (DMSO), as negative control and then processed as outlined in the experimental section. […] Nuclei were counterstained with blue DAPI (Figure 2, panels A), and merge channels were also shown (Figure 2, panels C), where it is evident the perfect superposition of green and blue signals. […] Images taken from bright fields were also included (Figure 2, panels D).
DNA damage and cell death were analyzed by means of the TUNEL assay as indicated by the manufacturer’s protocols (CF™488A TUNEL Assay Apoptosis Detection Kit, Biotium, Hayward, CA, USA), with few changes, as in [42]. DAPI staining (0.2 μg/mL, Sigma Aldrich, Milan, Italy) was adopted for cell nuclei. Observations were made at 20× magnification using a fluorescence microscope (Leica DM 6000, Leica Microsystem Srl, Buccinasco, Italy). LAS-X software (Version: 3.5.7.23225; Leica Microsystem Srl, Buccinasco, Italy) was employed for the acquisition and processing of the images. Images are representative of two separate experiments from which different fields were acquired.
Figure 2 TUNEL assay. […]

[13] = test system: Candida albicans 10231; test: Antifungal microdilution, C. albicans ATCC 10231; format: cell-based; conditions: microdilution CLSI M27-A3, 48 h, 37 °C
Description: (§6) In accordance with CLSI guidelines, compounds 3a–h were tested against a variety of fungal strains (Candida albicans 10231, Candida albicans 90028, Candida glabrata 15126, and Candida parapsilosis 22019) belonging to the ATCC collection. Amphotericin B was utilized as a reference drug. A similar trend of results, or even better than that obtained against bacteria, was assessed against fungal strains. […] Also, in this case, compound 3h emerged as the best of the series, with MICs of 16 μg/mL against Candida glabrata and Candida parapsilosis strains and 32 μg/mL against Candida albicans strains.
(§7) A microdilution technique described by the Clinical and Laboratory Standards Institute (CLSI, M27-A3) was used to assess the antifungal activity. The following fungal strains, belonging to the ATCC collection and available as freeze-dried discs, were used: C. albicans ATCC 10231, C. albicans ATCC 90028, C. glabrata ATCC 15126, and C. parapsilosis ATCC 22019. Stock solutions were prepared and preserved with purity as previously described for the antibacterial studies. Each yeast strain’s pre-cultures were made in Sabouraud broth (SAB) and allowed to grow until they stopped at 37 °C. By using a spectrophotometric technique (530 nm, range 0.12–0.15), the turbidity of the yeast stock suspension was calibrated to 0.5 McFarland Standard. Next, the standardized suspension was diluted first at 1:50 with SAB and then at 1:20 in the same medium to have […]. A total of 100 µL of inoculum was seeded into each well. As a control for growth, several wells containing only inoculated broth were prepared. The plates were incubated for 48 h at 37 °C, and the MIC values were calculated as the final well with no fungal growth. […] MIC values were observed based on the absence of fungal growth in the final well. The MICs were calculated by conducting the antifungal test three times in duplicate. As a control, amphotericin B was used.

[14] = test system: Candida albicans 90028; test: Antifungal microdilution, C. albicans ATCC 90028; format: cell-based; conditions: microdilution CLSI M27-A3, 48 h, 37 °C
Description: as §6, §7

[15] = test system: Candida glabrata 15126; test: Antifungal microdilution, C. glabrata ATCC 15126; format: cell-based; conditions: Nakaseomyces glabratus, microdilution CLSI M27-A3, 48 h, 37 °C, read-out: MIC C.g. 15126
Description: as §6, §7

[16] = test system: Candida parapsilosis 22019; test: Antifungal microdilution, C. parapsilosis ATCC 22019; format: cell-based; conditions: microdilution CLSI M27-A3, 48 h, 37 °C, read-out: MIC C.p. 22019
Description: as §6, §7

Compound: C[C@H]1COc2c(N3CCN(C)CC3)c(F)cc3c(=O)c(C(=O)O)cn1c23 [levofloxacin, reference compound]
- MIC [1]: 0.5 µg/mL (≈ 1.38 µM)
- MIC [2]: 0.5 µg/mL (≈ 1.38 µM)
- MIC [3]: 0.5 µg/mL (≈ 1.38 µM)
- MIC [4]: 2 µg/mL (≈ 5.53 µM)
- MIC [5]: 8 µg/mL (≈ 22.1 µM)
- MIC [6]: 0.06 µg/mL (≈ 0.166 µM)
- MIC [7]: 8 µg/mL (≈ 22.1 µM)
- MIC [8]: 4 µg/mL (≈ 11.1 µM)

Compound: O=C1CCC(N2C(=O)c3ccccc3C2=O)C(=O)N1 (stereo not shown) [thalidomide, reference compound]
- IC50 [9]: 413 ± 2 µM
- IC50 [10]: 360 ± 2 µM
- IC50 [11]: > 500 µM
- DNA damage (TUNEL, green nuclear fluorescence) [12]: found to damage DNA

Compound: C[C@@H]1[C@H](O)[C@@H](C)/C=C/C=C/C=C/C=C/C=C/C=C/C=C/[C@H](O[C@@H]2O[C@H](C)[C@@H](O)[C@H](N)[C@@H]2O)C[C@@H]2O[C@](O)(C[C@@H](O)C[C@@H](O)[C@H](O)CC[C@@H](O)C[C@@H](O)CC(=O)O[C@H]1C)C[C@H](O)[C@H]2C(=O)O [amph B, amphotericin B, reference compound]
- MIC [13]: 2 µg/mL (≈ 2.16 µM)
- MIC [14]: 1 µg/mL (≈ 1.08 µM)
- MIC [15]: 2 µg/mL (≈ 2.16 µM)
- MIC [16]: 2 µg/mL (≈ 2.16 µM)
